Reference: patent US8192962B2, “Processes for detecting toxic substances” (Daikin Industries, Ltd., priority 2001, dated 2012)

System: Transport facilitation protein genes
Experiment: DNA chip mRNA expression in yeast, transport facilitation protein genes (Table 5)
Type: cell-based, Saccharomyces cerevisiae S288C
Description: Yeast (Saccharomyces cerevisiae S288C (α SUC2mal mel gap2 CUP1)) were incubated at 25° C. on YPD medium (yeast extract 1%, polypepton 2%, glucose 2%). One of toxic chemical substances was added to the cells at logarithmic growth phase, and the cells were further incubated for two hours. Cells were cultured without any chemical substance in the same condition, and were used as control. Concentrations of the chemical substances were defined to inhibit the growth of the yeast but not lead to death.
After completion of the incubation, the culture was centrifuged to collect the cells. To the cells, sodium acetate buffer (50 mM sodium acetate, 10 mM EDTA, 1% SDS) was added, and the mixture was shaken at 65° C. for five minutes, followed by returning to room temperature, and obtaining the supernatant, of which the procedures were repeated two times. To the supernatant, ½ amount of a solution of phenol/chloroform was added, and the mixture was centrifuged to give a supernatant, which was added with an equal amount of chloroform, and the mixture was centrifuged to give a supernatant. To the supernatant, an equal amount of isopropanol containing 0.3 M sodium acetate was added, and the mixture was allowed to stand at room temperature for 30 minutes, after which the mixture was centrifuged to give a sediment of the whole RNAs. Seventy % ethanol was added to the sediment, and the mixture was again centrifuged to give a sediment, which was then dried and dissolved in water. mRNA was isolated from the whole RNAs as followings. In view of the fact that a poly A chain is attached to the 3′ terminus of mRNA, a polynucleotide having a poly T structure which was immobilized on the surface of latex beads was used to trap the mRNA, and then the mRNA was washed and eluted with spine column (Oligotex-dT30<Super>mRNA Purification Kit, Takara). Reverse transcription of the mRNA was conducted with a reverse transcriptase (Super Script II Reverse Transcriptase; catalogue No. 18064-014, GibcoBRL) using fluorescence-labeled nucleotides to give cDNAs that were introduced with Cy3-dUTP or Cy5-dUTP during the reverse transcription.
The labeled cDNAs were dissolved in TE buffer (10mM Tris-HCl/1 mM EDTA, pH8.0), and the solution was dropped on the DNA chip containing the whole genes of yeast (DNA Chip Research Inc. Japan) so that the cDNAs were hybridized on the DNA chip at 65° C. for over 12 hours. The fluoresces intensity of the DNA chip was read with a scanner, and the ratio relative to the fluorescence intensity resulting from the absence of chemical substance was estimated as the following, which is shown in Tables 1 to 9: […]

## [Cl][Cd][Cl] [(2), CdCl2]
Yeast gene YBL030C
  The level of expressed mRNA in the presence of chemical substance/The level of expressed mRNA in the absence of chemical substance: 0.9
Yeast gene YBL099W
  The level of expressed mRNA in the presence of chemical substance/The level of expressed mRNA in the absence of chemical substance: 0.9
Yeast gene YBR052C
  The level of expressed mRNA in the presence of chemical substance/The level of expressed mRNA in the absence of chemical substance: 1.6
Yeast gene YBR068C
  The level of expressed mRNA in the presence of chemical substance/The level of expressed mRNA in the absence of chemical substance: 1.0
Yeast gene YBR127C
  The level of expressed mRNA in the presence of chemical substance/The level of expressed mRNA in the absence of chemical substance: 0.7
Yeast gene YBR132C
  The level of expressed mRNA in the presence of chemical substance/The level of expressed mRNA in the absence of chemical substance: 1.9
Yeast gene YBR207W
  The level of expressed mRNA in the presence of chemical substance/The level of expressed mRNA in the absence of chemical substance: 1.7
Yeast gene YBR293W
  The level of expressed mRNA in the presence of chemical substance/The level of expressed mRNA in the absence of chemical substance: 3.1
Yeast gene YBR294W
  The level of expressed mRNA in the presence of chemical substance/The level of expressed mRNA in the absence of chemical substance: 14.4
Yeast gene YBR295W
  The level of expressed mRNA in the presence of chemical substance/The level of expressed mRNA in the absence of chemical substance: 1.5
Yeast gene YBR298C
  The level of expressed mRNA in the presence of chemical substance/The level of expressed mRNA in the absence of chemical substance: 1.0
Yeast gene YCL025C
  The level of expressed mRNA in the presence of chemical substance/The level of expressed mRNA in the absence of chemical substance: 4.6
Yeast gene YCL038C
  The level of expressed mRNA in the presence of chemical substance/The level of expressed mRNA in the absence of chemical substance: 1.6
Yeast gene YCR024C-A
  The level of expressed mRNA in the presence of chemical substance/The level of expressed mRNA in the absence of chemical substance: 0.9
Yeast gene YCR037C
  The level of expressed mRNA in the presence of chemical substance/The level of expressed mRNA in the absence of chemical substance: 1.0
Yeast gene YCR098C
  The level of expressed mRNA in the presence of chemical substance/The level of expressed mRNA in the absence of chemical substance: 3.0
Yeast gene YDL128W
  The level of expressed mRNA in the presence of chemical substance/The level of expressed mRNA in the absence of chemical substance: 1.1
Yeast gene YDL198C
  The level of expressed mRNA in the presence of chemical substance/The level of expressed mRNA in the absence of chemical substance: 1.0
Yeast gene YDL210W
  The level of expressed mRNA in the presence of chemical substance/The level of expressed mRNA in the absence of chemical substance: 2.2
Yeast gene YDL245C
  The level of expressed mRNA in the presence of chemical substance/The level of expressed mRNA in the absence of chemical substance: 2.4
Yeast gene YDR038C
  The level of expressed mRNA in the presence of chemical substance/The level of expressed mRNA in the absence of chemical substance: 1.3
Yeast gene YDR039C
  The level of expressed mRNA in the presence of chemical substance/The level of expressed mRNA in the absence of chemical substance: 1.6
Yeast gene YDR086C
  The level of expressed mRNA in the presence of chemical substance/The level of expressed mRNA in the absence of chemical substance: 1.0
Yeast gene YDR270W
  The level of expressed mRNA in the presence of chemical substance/The level of expressed mRNA in the absence of chemical substance: 1.5
Yeast gene YDR298C
  The level of expressed mRNA in the presence of chemical substance/The level of expressed mRNA in the absence of chemical substance: 1.2
Yeast gene YDR342C
  The level of expressed mRNA in the presence of chemical substance/The level of expressed mRNA in the absence of chemical substance: 1.1
Yeast gene YDR343C
  The level of expressed mRNA in the presence of chemical substance/The level of expressed mRNA in the absence of chemical substance: 1.0
Yeast gene YDR345C
  The level of expressed mRNA in the presence of chemical substance/The level of expressed mRNA in the absence of chemical substance: 0.9
Yeast gene YDR387C
  The level of expressed mRNA in the presence of chemical substance/The level of expressed mRNA in the absence of chemical substance: 0.9
Yeast gene YDR497C
  The level of expressed mRNA in the presence of chemical substance/The level of expressed mRNA in the absence of chemical substance: 0.5
Yeast gene YEL027W
  The level of expressed mRNA in the presence of chemical substance/The level of expressed mRNA in the absence of chemical substance: 0.6
Yeast gene YEL063C
  The level of expressed mRNA in the presence of chemical substance/The level of expressed mRNA in the absence of chemical substance: 0.8
Yeast gene YEL065W
  The level of expressed mRNA in the presence of chemical substance/The level of expressed mRNA in the absence of chemical substance: 3.8
Yeast gene YER053C
  The level of expressed mRNA in the presence of chemical substance/The level of expressed mRNA in the absence of chemical substance: 1.8
Yeast gene YFL011W
  The level of expressed mRNA in the presence of chemical substance/The level of expressed mRNA in the absence of chemical substance: 0.7
Yeast gene YFL041W
  The level of expressed mRNA in the presence of chemical substance/The level of expressed mRNA in the absence of chemical substance: 1.6
Yeast gene YFL050C
  The level of expressed mRNA in the presence of chemical substance/The level of expressed mRNA in the absence of chemical substance: 1.0
Yeast gene YFL054C
  The level of expressed mRNA in the presence of chemical substance/The level of expressed mRNA in the absence of chemical substance: 1.1
Yeast gene YGL006W
  The level of expressed mRNA in the presence of chemical substance/The level of expressed mRNA in the absence of chemical substance: 1.3
Yeast gene YGL008C
  The level of expressed mRNA in the presence of chemical substance/The level of expressed mRNA in the absence of chemical substance: 0.7
Yeast gene YGL104C
  The level of expressed mRNA in the presence of chemical substance/The level of expressed mRNA in the absence of chemical substance: 2.0
Yeast gene YGL167C
  The level of expressed mRNA in the presence of chemical substance/The level of expressed mRNA in the absence of chemical substance: 0.7
Yeast gene YGL255W
  The level of expressed mRNA in the presence of chemical substance/The level of expressed mRNA in the absence of chemical substance: 0.9
Yeast gene YGR055W
  The level of expressed mRNA in the presence of chemical substance/The level of expressed mRNA in the absence of chemical substance: 5.7
Yeast gene YGR065C
  The level of expressed mRNA in the presence of chemical substance/The level of expressed mRNA in the absence of chemical substance: 1.5
Yeast gene YGR082W
  The level of expressed mRNA in the presence of chemical substance/The level of expressed mRNA in the absence of chemical substance: 0.9
Yeast gene YGR096W
  The level of expressed mRNA in the presence of chemical substance/The level of expressed mRNA in the absence of chemical substance: 1.0
Yeast gene YGR138C
  The level of expressed mRNA in the presence of chemical substance/The level of expressed mRNA in the absence of chemical substance: 1.6
Yeast gene YGR191W
  The level of expressed mRNA in the presence of chemical substance/The level of expressed mRNA in the absence of chemical substance: 0.7
Yeast gene YGR197C
  The level of expressed mRNA in the presence of chemical substance/The level of expressed mRNA in the absence of chemical substance: 2.4
